Target: JAK3 (JH1domain-catalytic) kinase and other members of the JAK family
Assay: Test A: IC50 determination against JAK family kinases (Fabian et al. 2005 / Karaman et al. 2008 assay)
Type: binding
Conditions: 11 point dose response curves in triplicate; JAK family member not given; read-out: Activity (IC50) for JAK Family of Enzymes
Method: The ability of a compound of the invention to bind to JAK3 may be determined using pharmacological models which are well known to the art, or using Test A described below.
Inhibition constants (IC50s) were determined against JAK3 (JH1domain-catalytic) kinase and other members of the JAK family. Assays were performed as described in Fabian et al. (2005) Nature Biotechnology, vol. 23, p. 329 and in Karaman et al. (2008) Nature Biotechnology, vol. 26, p. 127 Inhibition constants were determined using 11 point dose response curves which were performed in triplicate. Table 1 shown below lists compounds of the invention and their respective IC50 values.

Row | IC50 | SMILES
1 | > 10 µM | CC(C)(C)C(=O)OCn1ccc2c(-c3cn[nH]c3)cnnc21 [Compound 43a, (4-(1H-pyrazol-4-yl)-7H-pyrrolo[2,3-c]pyridazin-7-yl)methyl pivalate]
2 | > 10 µM | c1cc2c(-c3cn[nH]c3)cnnc2[nH]1 [Compound 31m, 4-(1H-pyrazol-4-yl)-7H-pyrrolo[2,3-c]pyridazine]
3 | < 5 µM | CCS(=O)(=O)N1CC(CC#N)(n2cc(-c3cnnc4[nH]ccc34)cn2)C1 [Compound 49c, 2-(3-(4-(7H-pyrrolo[2,3-c]pyridazin-4-yl)-1H-pyrazol-1-yl)-1-(ethylsulfonyl)azetidin-3-yl)acetonitrile]
4 | < 5 µM | N#CCC(C1CCCCC1)n1cc(-c2cnnc3[nH]ccc23)cn1 (stereo not drawn) [Compound 47d, 3-(4-(7H-pyrrolo[2,3-c]pyridazin-4-yl)-1H-pyrazol-1-yl)-3-cyclohexylpropane nitrile]
5 | < 5 µM | N#CCC1(n2cc(-c3cnnc4[nH]ccc34)cn2)CCCCC1 [Compound 56d, 2-(1-(4-(7H-pyrrolo[2,3-c]pyridazin-4-yl)-1H-pyrazol-1-yl)cyclohexyl)acetonitrile]
6 | < 5 µM | N#CCC(C1CC1)n1cc(-c2cnnc3[nH]ccc23)cn1 (stereo not drawn) [Compound 53d, 3-(4-(7H-pyrrolo[2,3-c]pyridazin-4-yl)-1H-pyrazol-1-yl)-3-cyclopropylpropane nitrile]
7 | < 5 µM | N#CCC(C1CCC1)n1cc(-c2cnnc3[nH]ccc23)cn1 (stereo not drawn) [Compound 54e, 3-(4-(7H-pyrrolo[2,3-c]pyridazin-4-yl)-1H-pyrazol-1-yl)-3-cyclobutylpropane nitrile]
8 | < 5 µM | N#CC[C@]1(n2cc(-c3cnnc4[nH]ccc34)cn2)C[C@H](C#N)C1 [Compound 60g, (E)-3-(4-(7H-pyrrolo[2,3-c]pyridazin-4-yl)-1H-pyrazol-1-yl)-3-(cyanomethyl)cyclobutanecarbonitrile]
9 | < 5 µM | N#CCC(CC1CCCCC1)n1cc(-c2cnnc3[nH]ccc23)cn1 (stereo not drawn) [Compound 52e, 3-(4-(7H-pyrrolo[2,3-c]pyridazin-4-yl)-1H-pyrazol-1-yl)-4-cyclohexylbutane nitrile]
10 | < 5 µM | N#CCC1(n2cc(-c3cnnc4[nH]ccc34)cn2)CCC1 [Compound 55d, 2-(1-(4-(7H-pyrrolo[2,3-c]pyridazin-4-yl)-1H-pyrazol-1-yl)cyclobutyl)acetonitrile]
11 | < 5 µM | N#CCC[C@H](C1CCCC1)n1cc(-c2cnnc3[nH]ccc23)cn1 [Compound 62b, (R)-4-(4-(7H-pyrrolo[2,3-c]pyridazin-4-yl)-1H-pyrazol-1-yl)-4-cyclopentyl butanenitrile]
12 | > 10 µM | NC(=O)c1c[nH]c2nnnc(O)c12 [Compound 70c, 4-hydroxy-7H-pyrrolo[2,3-d][1,2,3]triazine-5-carboxamide]
13 | < 5 µM | N#CC[C@H](C1CCCCC1)n1cc(-c2cnnc3[nH]ccc23)cn1 [Compound 58d, (R)-3-(4-(7H-pyrrolo[2,3-c]pyridazin-4-yl)-1H-pyrazol-1-yl)-3-cyclohexylpropanenitrile]
14 | < 5 µM | N#CC[C@H](CC1CCCC1)n1cc(-c2cnnc3[nH]ccc23)cn1 [Compound 59d, (S)-3-(4-(7H-pyrrolo[2,3-c]pyridazin-4-yl)-1H-pyrazol-1-yl)-4-cyclopentylbutanenitrile]
15 | < 5 µM | N#CC[C@@H](C1CCCC1)n1cc(-c2cnnc3[nH]ccc23)cn1 [Compound 44d, (S)-3-(4-(7H-pyrrolo[2,3-c]pyridazin-4-yl)-1H-pyrazol-1-yl)-3-cyclopentyl propanenitrile]
16 | < 5 µM | N#CCC(C1CCCC1)n1cc(-c2cnnc3[nH]ccc23)cn1 (stereo not drawn) [Compound 34j, 3-(4-(7H-pyrrolo[2,3-c]pyridazin-4-yl)-1H-pyrazol-1-yl)-3-cyclopentylpropanenitrile]
17 | < 5 µM | N#CCC1(n2cc(-c3cnnc4[nH]ccc34)cn2)CCCC1 [Compound 48d, 2-(1-(4-(7H-pyrrolo[2,3-c]pyridazin-4-yl)-1H-pyrazol-1-yl)cyclopentyl)acetonitrile]
18 | < 5 µM | N#CC[C@]1(n2cc(-c3cnnc4[nH]ccc34)cn2)C[C@@H](C#N)C1 [Compound 60f, (Z)-3-(4-(7H-pyrrolo[2,3-c]pyridazin-4-yl)-1H-pyrazol-1-yl)-3-(cyanomethyl)cyclobutanecarbonitrile]
19 | < 5 µM | N#CC[C@H](c1ccccc1)n1cc(-c2cnnc3[nH]ccc23)cn1 [Compound 67d, (R)-3-(4-(7H-pyrrolo[2,3-c]pyridazin-4-yl)-1H-pyrazol-1-yl)-3-phenylpropane nitrile]
20 | > 10 µM | c1ccc(-c2cnnc3[nH]ccc23)cc1 [Compound 50a, 4-phenyl-7H-pyrrolo[2,3-c]pyridazine]
21 | < 5 µM | N#CC[C@H](c1cccc(O)c1)n1cc(-c2cnnc3[nH]ccc23)cn1 [Compound 68f, (R)-3-(4-(7H-pyrrolo[2,3-c]pyridazin-4-yl)-1H-pyrazol-1-yl)-3-(3-hydroxyphenyl)propanenitrile]
22 | < 5 µM | N#CC[C@H](C1CCCC1)n1cc(-c2cnnc3[nH]ccc23)cn1 [Compound 43g, (R)-3-(4-(7H-pyrrolo[2,3-c]pyridazin-4-yl)-1H-pyrazol-1-yl)-3-cyclopentylpropanenitrile]
23 | > 10 µM | CCOC(C)n1cc(-c2cnnc3[nH]ccc23)cn1 (stereo not drawn) [Compound 32c, 4-(1-(1-ethoxyethyl)-1H-pyrazol-4-yl)-7H-pyrrolo[2,3-c]pyridazine]
24 | > 10 µM | CC(C)(C)OC(=O)N1CC(CC#N)(n2cc(-c3cnnc4[nH]ccc34)cn2)C1 [Compound 45d, tert-butyl 3-(4-(7H-pyrrolo[2,3-c]pyridazin-4-yl)-1H-pyrazol-1-yl)-3-(cyanomethyl)azetidine-1-carboxylate]
25 | < 5 µM | N#CCC(CC1CCCC1)n1cc(-c2cnnc3[nH]ccc23)cn1 (stereo not drawn) [Compound 51e, 3-(4-(7H-pyrrolo[2,3-c]pyridazin-4-yl)-1H-pyrazol-1-yl)-4-cyclopentylbutane nitrile]
26 | < 5 µM | N#CCC(CC1CC1)n1cc(-c2cnnc3[nH]ccc23)cn1 (stereo not drawn) [Compound 57e, 3-(4-(7H-pyrrolo[2,3-c]pyridazin-4-yl)-1H-pyrazol-1-yl)-4-cyclopropylbutane nitrile]
27 | < 10 µM | N#CCC1(n2cc(-c3cnnc4[nH]ccc34)cn2)COC1 [Compound 46c, 2-(3-(4-(7H-pyrrolo[2,3-c]pyridazin-4-yl)-1H-pyrazol-1-yl)oxetan-3-yl)acetonitrile]

From patent US20120149662A1, “Heterocyclic Compounds as Janus Kinase Inhibitors” (BioCryst Pharmaceuticals, Inc., priority 2009, published 2012)
